Measured values taken from ChEMBL document CHEMBL1201862, “PubChem BioAssay data set” (2004).
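In this assay, cells in 96-well plates receive the compound at five concentrations for 48 hours. Endpoints are linearly interpolated between the surrounding concentrations. At the GI50, growth is halved.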 The source made the active and inactive calls. No stated cut-off is given here; in the data, active = GI50 up to about 1.1 µM and inactive = higher.

What was measured:
Assay in all cases: inhibition of tumour cell growth, NCI panel, 48 h
LOX IMVI = test system: LOX IMVI
OVCAR-4 = test system: OVCAR-4
OVCAR-5 = test system: OVCAR-5
M14 = test system: M14
HCC 2998 = test system: HCC 2998
A498 = test system: A498
UACC-62 = test system: UACC-62
SNB-75 = test system: SNB-75
RXF 393 = test system: RXF 393
BT-549 = test system: BT-549
SF-539 = test system: SF-539
HCT-116 = test system: HCT-116
UACC-257 = test system: UACC-257
NCI-H460 = test system: NCI-H460
NCI-H23 = test system: NCI-H23
MDA-MB-231 = test system: MDA-MB-231
SW-620 = test system: SW-620
OVCAR-3 = test system: OVCAR-3

Measured: GI50

OC1(c2ccccc2)CC2CCC(C1)N2CCCC(O)(c1ccccc1)c1ccccc1 (stereo unspecified)
inactive: LOX IMVI 10.6 µM | OVCAR-4 33.8 µM | OVCAR-5 25.8 µM | M14 16.4 µM | HCC 2998 2.14 µM | A498 15.5 µM | UACC-62 14.3 µM | SNB-75 11.2 µM | RXF 393 11.9 µM | BT-549 13 µM | SF-539 4.54 µM | HCT-116 14.6 µM | UACC-257 2 µM | NCI-H460 2.2 µM | NCI-H23 11.9 µM | MDA-MB-231 18.9 µM | SW-620 7.33 µM | OVCAR-3 16.4 µM

N#CC(NCCc1ccccc1)c1ccc(C(C#N)NCCc2ccccc2)cc1 (stereo unspecified)
inactive: LOX IMVI 45.1 µM | OVCAR-4 > 100 µM | OVCAR-5 > 100 µM | M14 70.6 µM | HCC 2998 83.9 µM | A498 > 100 µM | UACC-62 > 100 µM | RXF 393 > 100 µM | BT-549 20.5 µM | SF-539 > 100 µM | HCT-116 28.8 µM | UACC-257 > 100 µM | NCI-H460 > 100 µM | NCI-H23 30.7 µM | MDA-MB-231 > 100 µM | SW-620 32.8 µM | OVCAR-3 > 100 µM

O=C(OCc1ccccc1)c1nc2ccccc2n1S(=O)(=O)c1ccccc1
inactive: LOX IMVI > 100 µM | OVCAR-4 > 100 µM | OVCAR-5 > 100 µM | M14 > 100 µM | HCC 2998 > 100 µM | A498 > 100 µM | UACC-62 > 100 µM | SNB-75 > 100 µM | RXF 393 > 100 µM | BT-549 > 100 µM | SF-539 > 100 µM | HCT-116 > 100 µM | UACC-257 > 100 µM | NCI-H460 > 100 µM | NCI-H23 > 100 µM | MDA-MB-231 > 100 µM | SW-620 > 100 µM | OVCAR-3 > 100 µM

Fc1ccc(-c2sc(-c3cccs3)cc2Cc2cccs2)cc1
inactive: LOX IMVI > 100 µM | OVCAR-4 > 100 µM | OVCAR-5 > 100 µM | M14 > 100 µM | HCC 2998 > 100 µM | A498 > 100 µM | UACC-62 > 100 µM | SNB-75 > 100 µM | RXF 393 50.6 µM | BT-549 > 100 µM | SF-539 > 100 µM | HCT-116 > 100 µM | UACC-257 > 100 µM | NCI-H460 > 100 µM | NCI-H23 > 100 µM | MDA-MB-231 > 100 µM | SW-620 > 100 µM | OVCAR-3 > 100 µM
